Results taken from patent publication US9410125B2, “Medium for mammalian somatic cells and additive therefor” (FUJIREBIO INC., priority 2007, dated 2016).

Tested on: human bone marrow-derived mesenchymal stem cells (hMSCs)
Test: Adipogenic differentiation of hMSCs (Oil Red O staining)
Assay type: cell-based
Conditions: Example 2, differentiation into adipocytes and osteocytes
Description: Cells maintained for several passages using the conventional medium in (2-2) and 1% S-3, 1% FCS were transferred to wells in a 96-well plate each containing 0.1 mL of an adipocyte differentiation medium (DMEM, 10% FCS, 500 μM isobutylmethylxanthine (IBMX), 1 μM dexamethasone, 1 μM insulin, 1 μM Rosiglitazone) at a cell density of 20,000 cells/cm2, and cultured at 37° C. under 5% CO2 for 14 days, to induce differentiation into adipocytes. differentiated cells were confirmed by Oil Red O staining.
Cells maintained for several passages using conventional medium A and serum-free growth medium A were transferred to wells in a 48-well plate each containing 0.3 mL of an adipocyte differentiation medium (DMEM, 10% FCS, 500 μM IBMX, 1 μM dexamethasone, 1 μM insulin, 1 μM Rosiglitazone) at a cell density of 30,000 cells/cm2, and cultured at 37° C. under 5% CO2 for 14 days, to induce differentiation into adipocytes. differentiated cells were confirmed by Oil Red O staining. […]

CCCCCCCCCCCCC/C=C/[C@@H](O)[C@@H](N)COP(=O)(O)O [S1P, sphingosine-1-phosphate]
tendency in differentiation when used instead of LPA as the Edg ligand: did not change
